Tested on: LG0567-F671-PDC complex spheroids viability
Experiment: Anticancer human tumor LG0567-F671-PDC patient-derived lung adenocarcinoma cell line growth inhibition [RAS]
Conditions: for IC50: curve of first compound; for viability, T/C: stronger effect = lower value; active = viability on the fitted dose curve at most 10% of control; inactive = the rest
Method in brief: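 Multi-cell-type spheroids: tumor cells plus HUVEC endothelial cells and mesenchymal stem cells. RAS-pathway inhibitors were combined with targeted agents, each dosed in half-log steps down from clinical Cmax, or from 10 microM when Cmax was unknown.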

[1] = second compound 0.000949 µM, first compound 0.00316 µM
[2] = second compound 0.000949 µM, first compound 0.01 µM
[3] = second compound 0.000949 µM, first compound 0.0316 µM
[4] = second compound 0.000949 µM, first compound 0.1 µM
[5] = second compound 0.000949 µM, first compound 0.316 µM
[6] = second compound 0.000949 µM, first compound 1 µM
[7] = second compound 0.003 µM, first compound 0.00316 µM
[8] = second compound 0.003 µM, first compound 0.01 µM
[9] = second compound 0.003 µM, first compound 0.0316 µM
[10] = second compound 0.003 µM, first compound 0.1 µM
[11] = second compound 0.003 µM, first compound 0.316 µM
[12] = second compound 0.003 µM, first compound 1 µM
[13] = second compound 0.00949 µM, first compound 0.00316 µM
[14] = second compound 0.00949 µM, first compound 0.01 µM
[15] = second compound 0.00949 µM, first compound 0.0316 µM
[16] = second compound 0.00949 µM, first compound 0.1 µM
[17] = second compound 0.00949 µM, first compound 0.316 µM
[18] = second compound 0.00949 µM, first compound 1 µM
[19] = second compound 0.03 µM, first compound 0.00316 µM
[20] = second compound 0.03 µM, first compound 0.01 µM
[21] = second compound 0.03 µM, first compound 0.0316 µM
[22] = second compound 0.03 µM, first compound 0.1 µM
[23] = second compound 0.03 µM, first compound 0.316 µM
[24] = second compound 0.03 µM, first compound 1 µM
[25] = second compound 0.0949 µM, first compound 0.00316 µM
[26] = second compound 0.0949 µM, first compound 0.01 µM
[27] = second compound 0.0949 µM, first compound 0.0316 µM
[28] = second compound 0.0949 µM, first compound 0.1 µM
[29] = second compound 0.0949 µM, first compound 0.316 µM
[30] = second compound 0.0949 µM, first compound 1 µM
[31] = second compound 0.3 µM, first compound 0.00316 µM
[32] = second compound 0.3 µM, first compound 0.01 µM
[33] = second compound 0.3 µM, first compound 0.0316 µM
[34] = second compound 0.3 µM, first compound 0.1 µM
[35] = second compound 0.3 µM, first compound 0.316 µM
[36] = second compound 0.3 µM, first compound 1 µM
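Also: spheroids exposed to compound for seven days before readout.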
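For IC50 in this document: luminescence signal used as a proxy for viable cells.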

CC(=O)OC12COC1CC(O)C1(C)C(=O)C(O)C3=C(C)C(OC(=O)C(O)C(NC(=O)OC(C)(C)C)c4ccccc4)CC(O)(C(OC(=O)c4ccccc4)C21)C3(C)C (stereo unspecified) + C=CC(=O)N1CCN(c2nc(OCC3CCCN3C)nc3c(F)c(-c4nc(N)cc(C)c4C(F)(F)F)c(Cl)cc23)C(C)C1
inactive: viability, T/C (second compound 0.00316 µM, first compound 0.0316 µM) 14% | viability, T/C (second compound 0.00316 µM, first compound 0.1 µM) 12.6% | viability, T/C (second compound 0.00316 µM, first compound 0.316 µM) 13.9% | viability, T/C (second compound 0.00316 µM, first compound 1 µM) 14.3% | viability, T/C (second compound 0.00316 µM, first compound 3.16 µM) 15.8% | viability, T/C (second compound 0.00316 µM, first compound 10 µM) 12% | viability, T/C (second compound 0.01 µM, first compound 0.0316 µM) 11.3% | viability, T/C (second compound 0.01 µM, first compound 0.1 µM) 11.3% | viability, T/C (second compound 0.01 µM, first compound 0.316 µM) 9.97% | viability, T/C (second compound 0.01 µM, first compound 1 µM) 11.6% | viability, T/C (second compound 0.01 µM, first compound 3.16 µM) 12.5% | viability, T/C (second compound 0.01 µM, first compound 10 µM) 9.61% | viability, T/C (second compound 0.0316 µM, first compound 0.0316 µM) 13.7% | viability, T/C (second compound 0.0316 µM, first compound 0.1 µM) 11.6% | viability, T/C (second compound 0.0316 µM, first compound 0.316 µM) 10.8% | viability, T/C (second compound 0.0316 µM, first compound 1 µM) 11.4% | viability, T/C (second compound 0.0316 µM, first compound 3.16 µM) 14.5% | viability, T/C (second compound 0.0316 µM, first compound 10 µM) 9.14% | viability, T/C (second compound 0.1 µM, first compound 0.0316 µM) 11.1% | viability, T/C (second compound 0.1 µM, first compound 0.1 µM) 10.8% | viability, T/C (second compound 0.1 µM, first compound 0.316 µM) 10.9% | viability, T/C (second compound 0.1 µM, first compound 1 µM) 11.5% | viability, T/C (second compound 0.1 µM, first compound 3.16 µM) 13.6% | viability, T/C (second compound 0.1 µM, first compound 10 µM) 8.85% | viability, T/C (second compound 0.316 µM, first compound 0.0316 µM) 11.9% | viability, T/C (second compound 0.316 µM, first compound 0.1 µM) 10.7% | viability, T/C (second compound 0.316 µM, first compound 0.316 µM) 11.5% | viability, T/C (second compound 0.316 µM, first compound 1 µM) 12.2% | viability, T/C (second compound 0.316 µM, first compound 3.16 µM) 14.7% | viability, T/C (second compound 0.316 µM, first compound 10 µM) 9.3% | viability, T/C (second compound 1 µM, first compound 0.0316 µM) 12.6% | viability, T/C (second compound 1 µM, first compound 0.1 µM) 10.2% | viability, T/C (second compound 1 µM, first compound 0.316 µM) 12.4% | viability, T/C (second compound 1 µM, first compound 1 µM) 14.5% | viability, T/C (second compound 1 µM, first compound 3.16 µM) 14.7% | viability, T/C (second compound 1 µM, first compound 10 µM) 9.86%
< 31.6 nM: IC50 (second compound 0.00316 µM) | IC50 (second compound 0.01 µM) | IC50 (second compound 0.0316 µM) | IC50 (second compound 0.1 µM) | IC50 (second compound 0.316 µM) | IC50 (second compound 1 µM)

O=C(c1ccc(F)c(F)c1Nc1ccc(I)cc1F)N1CC(O)([C@@H]2CCCCN2)C1 + CCn1c(-c2cc(N3CCN(C)CC3)cnc2C(C)OC)c2c3cc(ccc31)-c1csc(n1)CC(NC(=O)C1CC1C)C(=O)N1CCCC(N1)C(=O)OCC(C)(C)C2
active: viability, T/C [3] 8.81% | viability, T/C [4] 6.2% | viability, T/C [5] 1.53% | viability, T/C [6] 0.54% | viability, T/C [7] 8.59% | viability, T/C [8] 6.83% | viability, T/C [9] 4.65% | viability, T/C [10] 2.36% | viability, T/C [11] 1.05% | viability, T/C [12] 0.48% | viability, T/C [13] 5.45% | viability, T/C [14] 3.36% | viability, T/C [15] 2.12% | viability, T/C [16] 0.98% | viability, T/C [17] 0.46% | viability, T/C [18] 0.34% | viability, T/C [19] 3.69% | viability, T/C [20] 1.98% | viability, T/C [21] 1.07% | viability, T/C [22] 0.6% | viability, T/C [23] 0.54% | viability, T/C [24] 0.95% | viability, T/C [25] 1.82% | viability, T/C [26] 1.19% | viability, T/C [27] 0.64% | viability, T/C [28] 0.56% | viability, T/C [29] 0.47% | viability, T/C [30] 0.32% | viability, T/C [31] 1.58% | viability, T/C [32] 1.13% | viability, T/C [33] 0.59% | viability, T/C [34] 0.43% | viability, T/C [35] 0.53% | viability, T/C [36] 0.43%
inactive: viability, T/C [1] 21.6% | viability, T/C [2] 13.6%
< 3.16 nM: IC50 (second compound 0.000949 µM) | IC50 (second compound 0.003 µM) | IC50 (second compound 0.00949 µM) | IC50 (second compound 0.03 µM) | IC50 (second compound 0.0949 µM) | IC50 (second compound 0.3 µM)

C=CC(=O)Nc1cc(Nc2nccc(-c3cn(C)c4ccccc34)n2)c(OC)cc1N(C)CCN(C)C + CCn1c(-c2cc(N3CCN(C)CC3)cnc2C(C)OC)c2c3cc(ccc31)-c1csc(n1)CC(NC(=O)C1CC1C)C(=O)N1CCCC(N1)C(=O)OCC(C)(C)C2
active: viability, T/C [5] 5.93% | viability, T/C [6] 2.95% | viability, T/C [8] 10.2% | viability, T/C [9] 8.59% | viability, T/C [10] 4.71% | viability, T/C [11] 3.14% | viability, T/C [12] 1.73% | viability, T/C [13] 6.67% | viability, T/C [14] 6.47% | viability, T/C [15] 4.89% | viability, T/C [16] 3.67% | viability, T/C [17] 1.84% | viability, T/C [18] 1.07% | viability, T/C [19] 3.85% | viability, T/C [20] 3.87% | viability, T/C [21] 11.8% | viability, T/C [22] 2.59% | viability, T/C [23] 1.49% | viability, T/C [24] 0.76% | viability, T/C [25] 3.44% | viability, T/C [26] 2.65% | viability, T/C [27] 2.81% | viability, T/C [28] 2.03% | viability, T/C [29] 1.32% | viability, T/C [30] 0.84% | viability, T/C [31] 2.71% | viability, T/C [32] 2.18% | viability, T/C [33] 2.37% | viability, T/C [34] 1.85% | viability, T/C [35] 1.11% | viability, T/C [36] 0.63%
< 3.16 nM: IC50 (second compound 0.000949 µM) | IC50 (second compound 0.003 µM) | IC50 (second compound 0.00949 µM) | IC50 (second compound 0.03 µM) | IC50 (second compound 0.0949 µM) | IC50 (second compound 0.3 µM)
inactive: viability, T/C [1] 24.1% | viability, T/C [2] 19.9% | viability, T/C [3] 17.7% | viability, T/C [4] 11.7% | viability, T/C [7] 11.5%

From PubChem BioAssay AID2060889 (Molecular Pharmacology Branch, DTP, NCI, 2025)
